Measured values as given in patent EP1561465A2, “Methods of use of fluoroquinolone compounds against bacteria” (LG Life Sciences, Ltd., priority 1999, dated 2001).
≈ marks a conversion by molar mass, not a printed value. Read-outs that look alike come from different tables or passages of the source.

Legend:
[1] = test system: Salmonella spp.; assay: MIC by agar dilution (NCCLS M7-A4), 288 enteropathogenic isolates, gemifloxacin and 15 other antimicrobials; assay type: cell-based; conditions: for MIC: Salmonella
[2] = test system: Hafnia alvei; assay: as above; assay type: cell-based; conditions: for MIC: Hafnia alvei
[3] = test system: Yersinia enterocolitica; assay: as above; assay type: cell-based
[4] = test system: Shigella spp.; assay: as above; assay type: cell-based; conditions: Shigella spp. N= 21
How it was run: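 Agar dilution with ~10^4 cfu/spot inoculum; plates incubated aerobically at 35 °C for 24 h, except C. jejuni, held microaerophilically for 48 h. MIC taken as lowest antibiotic concentration with no visible growth.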

[5] = test system: Aeromonas spp.; assay: as above; assay type: cell-based; conditions: for MIC: Aeromonas
[6] = test system: Campylobacter jejuni; conditions: Campylobacter jejuni N= 91
[7] = test system: Campylobacter jejuni; assay: MIC by agar dilution (NCCLS M7-A4), 288 enteropathogenic isolates, gemifloxacin and 15 other antimicrobials; conditions: for MIC: Campylobacter jejuni
[8] = test system: Streptococcus pneumoniae; assay: MIC by NCCLS reference broth microdilution, 450 respiratory tract pathogens; assay type: cell-based; conditions: Streptococcus pneumoniae
[9] = test system: Streptococcus pyogenes; assay: as above; assay type: cell-based; conditions: Streptococcus pyogenes
[10] = test system: Haemophilus influenzae; assay: as above; assay type: cell-based; conditions: for MIC / MIC50: Haemophilus influenzae
[11] = test system: Moraxella catarrhalis; assay: as above; assay type: cell-based
[12] = test system: Staphylococcus aureus; assay: as above; assay type: cell-based
[13] = test system: Klebsiella pneumoniae; assay: as above; assay type: cell-based
[14] = test system: Haemophilus influenzae; assay: MIC by two-fold serial agar dilution, Sensitivity Disk agar-N (Kitasato isolates); assay type: cell-based; conditions: Haemophilus influenzae (24)
[15] = test system: Moraxella catarrhalis; assay: as above; assay type: cell-based; conditions: Moraxella catarrhalis (22)
[16] = test system: Streptococcus pneumoniae; assay: as above; assay type: cell-based; conditions: Streptococcus pneumoniae; for MIC: 18 h, read-out: MIC Range
[17] = test system: E. coli; assay: microbe, parasite or virus in culture; assay type: cell-based; conditions: Escherichia coli
[18] = test system: P. aeruginosa; assay: MIC by two-fold serial agar dilution, quinolone-resistant strains; assay type: cell-based; conditions: Pseudomonas aeruginosa
[19] = test system: Pseudomonas aeruginosa; assay: MIC by agar dilution (NCCLS), 322 nosocomial Gram negative isolates, Athens 1998; assay type: cell-based; conditions: n = 57 isolates
[20] = test system: Escherichia coli; assay: as above; assay type: cell-based; conditions: n = 57 isolates
[21] = test system: Klebsiella pneumoniae; assay: as above; assay type: cell-based; conditions: n = 56 isolates
[22] = test system: Proteus mirabilis; assay: as above; assay type: cell-based; conditions: Proteus mirabilis; n = 57 isolates
[23] = test system: Enterobacter spp.; assay: as above; assay type: cell-based; conditions: Enterobacter; n = 57 isolates; read-out: MIC50
[24] = test system: Acinetobacter spp.; assay: as above; assay type: cell-based; conditions: Acinetobacter; n = 38 strains
[25] = Streptococcus pyogenes (n = 100)
[26] = erythromycin resistant I phenotype [MLSB] (n = 20)
[27] = erythromycin resistant M phenotype (n = 20)
[28] = Haemophilus influenzae (n = 100)
[29] = Klebsiella pneumoniae, Klebsiella pneumoniae (n = 50)

SMILES: CO/N=C1\CN(c2nc3c(cc2F)c(=O)c(C(=O)O)cn3C2CC2)CC1CN (racemic) [Gemifloxacin (SB 265805)]
- % Susceptible ([1]; Salmonella spp. N= 106): 100%
- MIC (mg/L) Range ([1]; Salmonella spp. N= 106): ≤0.015 to 0.25 mg/L
- MIC ([1]; read-out: MIC (mg/L) 50%, Salmonella spp. N= 106): 0.03 mg/L (≈ 0.077 µM)
- MIC ([1]; read-out: MIC (mg/L) 90%, Salmonella spp. N= 106): 0.12 mg/L (≈ 0.308 µM)
- % Susceptible ([2]; Hafnia alvei N= 32): 100%
- MIC ([2]; read-out: MIC (mg/L) 50%): 0.03 mg/L (≈ 0.077 µM)
- MIC ([2]; read-out: MIC (mg/L) 90%): 0.03 mg/L (≈ 0.077 µM)
- % Susceptible ([3]; Yersinia enterocolitica N= 22): 100%
- MIC (mg/L) Range ([3]; Yersinia enterocolitica N= 22): ≤0.015 to 0.12 mg/L
- MIC ([3]; Yersinia enterocolitica, read-out: MIC (mg/L) 50%): 0.03 mg/L (≈ 0.077 µM)
- MIC ([3]; Yersinia enterocolitica, read-out: MIC (mg/L) 90%): 0.03 mg/L (≈ 0.077 µM)
- % Susceptible [4]: 100%
- MIC (mg/L) Range [4]: ≤0.015 mg/L
- MIC ([4]; read-out: MIC (mg/L) 50%): ≤ 0.015 mg/L
- MIC ([4]; read-out: MIC (mg/L) 90%): ≤ 0.015 mg/L
- % Susceptible ([5]; Aeromonas spp. N= 16): 100%
- MIC ([5]; read-out: MIC (mg/L) 50%): ≤ 0.015 mg/L
- MIC ([5]; read-out: MIC (mg/L) 90%): 0.03 mg/L (≈ 0.077 µM)
- % Susceptible [6]: 32%
- MIC (mg/L) Range [6]: 0.03 to 128 mg/L
- MIC ([7]; read-out: MIC (mg/L) 50%): 32 mg/L (≈ 82.2 µM)
- MIC ([7]; read-out: MIC (mg/L) 90%): 128 mg/L (≈ 329 µM)

SMILES: O=C(O)c1cn(C2CC2)c2cc(N3CCNCC3)c(F)cc2c1=O [Ciprofloxacin, ciprofloxacin]
- MIC ([8]; Streptococcus pneumoniae (n = 100)): 0.06 to 4 µg/mL (≈ 0.181 to 12.1 µM)
- MIC ([8]; multi-drug resistant (n = 16)): 0.5 to 4 µg/mL (≈ 1.51 to 12.1 µM)
- MIC ([8]; penicillin intermediate (n = 16)): 0.5 to 2 µg/mL (≈ 1.51 to 6.04 µM)
- MIC ([8]; penicillin resistant (n = 18)): 0.5 to 8 µg/mL (≈ 1.51 to 24.1 µM)
- MIC50 ([8]; penicillin resistant (n = 18)): 0.5 µg/mL (≈ 1.51 µM)
- MIC90 ([8]; penicillin resistant (n = 18)): 8 µg/mL (≈ 24.1 µM)
- MIC ([8]; penicillin susceptible (n = 20)): 0.06 to 2 µg/mL (≈ 0.181 to 6.04 µM)
- MIC [9, 25]: 0.12 to 2 µg/mL (≈ 0.362 to 6.04 µM)
- MIC90 [9, 25]: 0.5 µg/mL (≈ 1.51 µM)
- MIC ([9]; erythromycin resistant C phenotype [MLSB] (n = 20)): 0.25 to 0.5 µg/mL (≈ 0.754 to 1.51 µM)
- MIC [9, 26]: 0.12 to 2 µg/mL (≈ 0.362 to 6.04 µM)
- MIC90 [9, 26]: 0.5 µg/mL (≈ 1.51 µM)
- MIC [9, 27]: 0.12 to 0.5 µg/mL (≈ 0.362 to 1.51 µM)
- MIC90 [9, 27]: 0.5 µg/mL (≈ 1.51 µM)
- MIC ([9]; fully susceptible (n = 20)): 0.12 to 2 µg/mL (≈ 0.362 to 6.04 µM)
- MIC90 ([9]; fully susceptible (n = 20)): 0.5 µg/mL (≈ 1.51 µM)
- MIC ([9]; multi-drug resistant (n = 20)): 0.25 to 1 µg/mL (≈ 0.754 to 3.02 µM)
- MIC90 ([9]; multi-drug resistant (n = 20)): 0.5 µg/mL (≈ 1.51 µM)
- MIC90 [10, 28]: 0.015 µg/mL (≈ 0.0453 µM)
- MIC [10, 28]: 0.0075 to 0.5 µg/mL (≈ 0.0226 to 1.51 µM)
- MIC50 [10, 28]: ≤ 0.00075 µg/mL
- MIC ([10]; β-lactamase negative (n = 80)): 0.0075 to 0.5 µg/mL (≈ 0.0226 to 1.51 µM)
- MIC50 ([10]; β-lactamase negative (n = 80)): ≤ 0.0075 µg/mL
- MIC ([10]; β-lactamase positive (n = 20)): 0.0075 to 0.015 µg/mL (≈ 0.0226 to 0.0453 µM)
- MIC50 ([10]; β-lactamase positive (n = 20)): ≤ 0.0075 µg/mL
- MIC ([11]; Moraxella catarrhalis (n = 50)): 0.00375 to 0.06 µg/mL (≈ 0.0113 to 0.181 µM)
- MIC50 ([11]; Moraxella catarrhalis (n = 50)): 0.03 µg/mL (≈ 0.0905 µM)
- MIC ([11]; β-lactamase negative (n = 13)): 0.00375 to 0.03 µg/mL (≈ 0.0113 to 0.0905 µM)
- MIC50 ([11]; β-lactamase negative (n = 13)): 0.015 µg/mL (≈ 0.0453 µM)
- MIC ([11]; β-lactamase positive (n = 37)): 0.00375 to 0.06 µg/mL (≈ 0.0113 to 0.181 µM)
- MIC50 ([11]; β-lactamase positive (n = 37)): 0.03 µg/mL (≈ 0.0905 µM)
- MIC ([12]; Staphylococcus aureus (n = 50)): 0.06 to 4 µg/mL (≈ 0.181 to 12.1 µM)
- MIC50 ([12]; Staphylococcus aureus (n = 50)): 2 µg/mL (≈ 6.04 µM)
- MIC ([12]; β-lactamase negative (n = 20)): 0.06 to 4 µg/mL (≈ 0.181 to 12.1 µM)
- MIC50 ([12]; β-lactamase negative (n = 20)): 2 µg/mL (≈ 6.04 µM)
- MIC Range ([13]; Klebsiella pneumoniae (n = 50)): ≤0.0075 to 1 µg/mL
- MIC50 [13, 29]: 0.12 µg/mL (≈ 0.362 µM)
- MIC90 [13, 29]: 0.5 µg/mL (≈ 1.51 µM)
- MIC90 ([13]; Klebsiella pneumoniae, extended spectrum β-lactamase negative (n = 30)): 0.03 µg/mL (≈ 0.0905 µM)
- MIC90 ([13]; Klebsiella pneumoniae, extended spectrum β-lactamase positive (n = 20)): 0.5 µg/mL (≈ 1.51 µM)
- MIC Range ([13]; extended spectrum β-lactamase negative (n = 30)): ≤0.0075 to 0.12 µg/mL
- MIC Range ([13]; extended spectrum β-lactamase positive (n = 20)): 0.015 to 0.5 µg/mL
- MIC Range [14]: 0.008 to 0.031 µg/mL
- MIC50 [15]: 0.031 µg/mL (≈ 0.0936 µM)
- MIC Range [15]: 0.031 to 0.063 µg/mL
- MIC ([16]; Ciprofloxacin-resistant (21)): 8 to 128 µg/mL (≈ 24.1 to 386 µM)
- MIC ([16]; Ciprofloxacin-susceptible (94)): 0.25 to 4 µg/mL (≈ 0.754 to 12.1 µM)
- MIC ([16]; Erythromycin-resistant (37)): 0.5 to 64 µg/mL (≈ 1.51 to 193 µM)
- MIC ([16]; Minocycline-resistant (37)): 0.25 to 64 µg/mL (≈ 0.754 to 193 µM)
- MIC ([16]; Penicillin-resistant (19)): 0.5 to 8 µg/mL (≈ 1.51 to 24.1 µM)
- MIC50 ([16]; Penicillin-resistant (19), read-out: MIC50): 0.5 µg/mL (≈ 1.51 µM)
- MIC ([17]; E. coli KU1030, mutant type SP): 0.063 µg/mL (≈ 0.19 µM)
- MIC ([17]; E. coli KU1036, mutant type GB (DNA gyrase B)): 0.063 µg/mL (≈ 0.19 µM)
- MIC ([17]; E. coli KU1038, mutant type SP): 0.063 µg/mL (≈ 0.19 µM)
- MIC ([17]; E. coli KU1042, mutant type SP): 0.063 µg/mL (≈ 0.19 µM)
- MIC [18]: 1 µg/mL (≈ 3.02 µM)
- MIC50 [19]: 0.5 µg/mL (≈ 1.51 µM)
- MIC50 ([20]; Escherichia coli): ≤ 0.03 µg/mL
- MIC Range [20]: ≤0.03 to 64 µg/mL
- MIC50 ([21]; Klebsiella pneumoniae): ≤ 0.03 µg/mL
- MIC90 ([21]; Klebsiella pneumoniae): 0.5 µg/mL (≈ 1.51 µM)
- MIC Range [21]: ≤0.03 to 8 µg/mL
- MIC50 [22]: 0.06 µg/mL (≈ 0.181 µM)
- MIC50 [23]: ≤ 0.03 µg/mL
- MIC90 [24]: > 64 µg/mL
- MIC (mg/L) Range ([1]; Salmonella spp. N= 106): ≤0.015 to 1 mg/L
- MIC ([3]; 24 h, Yersinia enterocolitica N= 22, read-out: MIC (mg/L) Range): 0.015 to 0.25 mg/L (≈ 0.0453 to 0.754 µM)
- MIC (mg/L) Range ([5]; Aeromonas spp. N= 16): ≤0.015 to 0.06 mg/L
- MIC (mg/L) Range ([7]; Campylobacter jejuni N= 91): 0.06 to 128 mg/L
